Results as given in patent US11117890B2, “Substituted isoindole allosteric EGFR inhibitors” (Hoffmann-La Roche Inc., priority 2017, dated 2021).

target: T1, Phospho-EGFR in H1975 cell line (Homo sapiens, UniProt P00533, L858R/T790M); experiment: HTRF Phospo EGFR Assay (Cellular); type: cell-based; details: H1975 cells; 6 hours compound incubation in starving medium; HTRF anti-Phospho-EGFR readout
T1 construct: H1975 cell line was obtained from American Type Culture Collection; host or cells: H1975
T1 sequence (P00533 25-1210 T790M/L858R): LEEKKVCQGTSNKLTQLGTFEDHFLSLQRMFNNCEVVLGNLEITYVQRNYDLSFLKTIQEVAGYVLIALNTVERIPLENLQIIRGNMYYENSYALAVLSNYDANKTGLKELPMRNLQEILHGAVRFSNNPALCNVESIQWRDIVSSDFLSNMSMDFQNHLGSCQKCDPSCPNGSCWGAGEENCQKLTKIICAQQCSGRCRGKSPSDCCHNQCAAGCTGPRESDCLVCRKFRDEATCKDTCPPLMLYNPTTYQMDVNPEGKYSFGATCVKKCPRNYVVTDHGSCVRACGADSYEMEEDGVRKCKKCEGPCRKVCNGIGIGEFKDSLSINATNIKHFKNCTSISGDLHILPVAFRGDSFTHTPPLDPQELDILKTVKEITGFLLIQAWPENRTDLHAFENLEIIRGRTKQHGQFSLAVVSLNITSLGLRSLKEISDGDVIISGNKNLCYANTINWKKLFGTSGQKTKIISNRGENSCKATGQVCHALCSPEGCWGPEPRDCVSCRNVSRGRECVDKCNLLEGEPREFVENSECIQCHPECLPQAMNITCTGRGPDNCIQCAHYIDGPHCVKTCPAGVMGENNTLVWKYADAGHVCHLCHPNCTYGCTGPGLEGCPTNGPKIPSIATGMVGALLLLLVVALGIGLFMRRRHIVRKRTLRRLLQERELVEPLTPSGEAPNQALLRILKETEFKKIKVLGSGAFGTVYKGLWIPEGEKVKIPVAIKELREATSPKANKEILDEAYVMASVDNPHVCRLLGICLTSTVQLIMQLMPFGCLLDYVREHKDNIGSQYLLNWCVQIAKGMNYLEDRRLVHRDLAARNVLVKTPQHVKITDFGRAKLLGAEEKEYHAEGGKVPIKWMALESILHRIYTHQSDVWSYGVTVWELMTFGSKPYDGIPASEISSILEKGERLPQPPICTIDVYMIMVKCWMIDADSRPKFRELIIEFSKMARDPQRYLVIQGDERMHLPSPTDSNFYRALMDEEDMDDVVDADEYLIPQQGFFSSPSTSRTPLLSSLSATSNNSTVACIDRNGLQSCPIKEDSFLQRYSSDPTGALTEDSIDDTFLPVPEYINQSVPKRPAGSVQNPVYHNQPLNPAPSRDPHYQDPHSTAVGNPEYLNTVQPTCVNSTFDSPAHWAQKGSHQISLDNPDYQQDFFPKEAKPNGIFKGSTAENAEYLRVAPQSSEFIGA
Description: HTRF Phospo EGFR Assay (Cellular)
H1975 cell line was obtained from American Type Culture Collection (Manassas, Va., USA). Cells were maintained at 37° C., 5% CO2 in complete Media RPMI 1640 without phenol red containing 0.3 mg/ml glutamine, 100 IU/ml penicillin, and […] (Gibco) supplemented with 10% fetal bovine serum (FBS) (Gibco). Compounds were diluted into starving medium RPMI 1640 Media without phenol red containing 0.3 mg/ml glutamine, 100 IU/ml penicillin, and […] (Gibco).
Cells were cultured overnight in a 384-well white plate (8000 cells/well) using 8 μl of complete medium/well. Cells were washed two times with 20 μl of starving medium. Media was removed by tapping plates on tissue and subsequently 8 μl of fresh starving medium/well was added. Then 4 μl/well of the 3×compound solution, containing a half-log dilution series of the compound or DMSO in starving medium, were added to the cells. After 6 hours at 37° C., 5% CO2 cells were lysed by adding to the compound mix 4 μl/well of the supplemented lysis buffer, followed by incubation for 30 min at room temperature with shaking. Lysates were stored at −20° C. overnight. The following day plates were thawed and 2 μl of anti-Phospho-EGFR Cryptate and 2 μl of anti-Phospho-EGFR-d2 antibody solutions prepared in the detection buffer were added. The plates were then incubated for at least 4 h at room temperature before reading the fluorescence emission at 620 and 665 nm using PHERAstar FX plate reader (BMG Labtech).

IC50 | SMILES
1 nM | Nc1ccc(C#Cc2ccc3c(c2)C(=O)N(C(C(=O)Nc2nccs2)c2cc(F)ccc2O)C3)cn1 (racemic) [Example 15, (2RS)-2-[6-[2-(6-Amino-3-pyridyl)ethynyl]-1-oxo-isoindolin-2-yl]-2-(5-fluoro-2-hydroxy-phenyl)-N-thiazol-2-yl-acetamide]
16 nM | CNC(=O)c1ccc(C#Cc2ccc3c(c2)C(=O)N(C(C(=O)Nc2nccs2)c2ccccc2)C3)cn1 (racemic) [Example 9, N-Methyl-5-[2-[3-oxo-2-[(1RS)-2-oxo-1-phenyl-2-(thiazol-2-ylamino)ethyl]isoindolin-5-yl]ethynyl]pyridine-2-carboxamide]
9 nM | Nc1ccc(C#Cc2ccc3c(c2)C(=O)N(C(C(=O)Nc2nccs2)c2cccc(F)c2)C3)cn1 (racemic) [Example 4, (2RS)-2-[6-[2-(6-Amino-3-pyridyl)ethynyl]-1-oxo-isoindolin-2-yl]-2-(3-fluorophenyl)-N-thiazol-2-yl-acetamide]
7 nM | CN1CCN(Cc2ccc(C#Cc3ccc4c(c3)C(=O)N(C(C(=O)Nc3nccs3)c3cc(F)ccc3O)C4)cc2)CC1 (racemic) [Example 30, (2RS)-2-(5-Fluoro-2-hydroxy-phenyl)-2-[6-[2-[4-1(4-methylpiperazin-1-yl)methyl]phenyl]ethynyl]-1-oxo-isoindolin-2-yll-N-thiazol-2-yl-acetamide]
